According to US20190016689A1, “NOVEL FLUORINATED QUINAZOLINE DERIVATIVES AS EGFR INHIBITORS” (TRILLIUM THERAPEUTICS INC., priority 2016, published 2019):
Read-outs that look alike come from different tables or passages of the source. Blank lines part the entries; values can stand above or below the molecule they belong to.

Legend:
[1] = in vitro; settings: human, Caco-2, pH 7.4
Experimental: At this stage of growth, cell monolayers were fully polarized and differentiated.
The permeability assay buffer was Hanks Balanced Salt Solution containing 10 mM HEPES and 15 mM glucose at a pH of 7.4. The dosing buffer contained 5 μM metoprolol (positive control), 5 μM atenolol (negative control) and 100 μM lucifer yellow. The buffer in the receiver chamber also contained 1% bovine serum albumin (BSA). The dosing solution concentration was 5 μM in the assay buffer. Digoxin (20 μM) was used as Pgp substrate control.
The known Pgp inhibitor was co-dosed at 50 μM with compound at 5 μM.
Cell monolayers were dosed on the apical side (A-to-B) or basolateral side (B-to-A) and incubated at 37° C. in a shaker (65 rpm). Samples were taken from the donor and receiver chambers at 120 minutes. Each determination was performed in duplicate.
Narrow-window mass extraction LC/MS analysis was performed for all samples from this study using a Waters Xevo quadrupole time-of-flight (QTof) mass spectrometer, to determine relative peak areas of parent compound. The percent of transported drug was calculated based on these peak areas, relative to the initial, dosing concentration.

[2] = system: SNB-19; assay: NCI screening panel (SRB); type: cell-based; settings: Homo sapiens, SNB-19 (CNS), 48 h; for CC50: read-out: LC50 (the source's name)
[3] = system: MDA-MB-435; assay: NCI screening panel (SRB); type: cell-based; settings: Homo sapiens, MDA-MB-435 (Melanoma), 48 h; for CC50: read-out: LC50 (the source's name)
[4] = Plasma and brain exposure in male CD-1 mice (Brain PK); type: in vivo; settings: CD-1, mouse, brain; for AUC(0-t): read-out: AUC0-tlast; for half-life: read-out: Apparent t1/2 (converted); for MRT last: read-out: MRT0-tlast
Experimental: Animals: Male CD-1 mice (20-25 g) from Charles River Labs will be acclimatized for a minimum of 5 days prior to dosing. Body weights will be recorded on the day of dosing. Food restriction: Animals dosed p.o. will be deprived of food overnight and fed ˜2 h following dosing. Clinical observations: Animals will be observed at the time of dosing and each sample collection. Any abnormalities will be documented. Dosing: Formulations will be administered i.v. via the tail vein and p.o. by gavage with disposable feeding needles. Sample collection: Terminal blood samples will be collected under O2/CO2 anesthesia by cardiac puncture and then the brain and lungs will be excised blotted and weighed. Sample processing/storage: All blood samples will be transferred into K2EDTA tubes and centrifuged (6,800 rpm for 5 min at 4° C.) to obtain plasma. All samples will be stored frozen at −80° C. until bioanalysis. Sample retention: Plasma, brain and lung samples will be analyzed and any remaining samples will be stored frozen at −80° C. until the study is completed.

[5] = system: DU-145; assay: NCI screening panel (SRB); type: cell-based; settings: Homo sapiens, DU-145 (Prostate), 48 h; for CC50: read-out: LC50 (the source's name)
[6] = target: EGFR (L858R) (Homo sapiens, UniProt P00533, L858R); assay: Kinase assays, selectivity panel (qPCR); settings: read-out: % Control @ 300 nM
Chain of EGFR (L858R) (P00533 25-1210 L858R): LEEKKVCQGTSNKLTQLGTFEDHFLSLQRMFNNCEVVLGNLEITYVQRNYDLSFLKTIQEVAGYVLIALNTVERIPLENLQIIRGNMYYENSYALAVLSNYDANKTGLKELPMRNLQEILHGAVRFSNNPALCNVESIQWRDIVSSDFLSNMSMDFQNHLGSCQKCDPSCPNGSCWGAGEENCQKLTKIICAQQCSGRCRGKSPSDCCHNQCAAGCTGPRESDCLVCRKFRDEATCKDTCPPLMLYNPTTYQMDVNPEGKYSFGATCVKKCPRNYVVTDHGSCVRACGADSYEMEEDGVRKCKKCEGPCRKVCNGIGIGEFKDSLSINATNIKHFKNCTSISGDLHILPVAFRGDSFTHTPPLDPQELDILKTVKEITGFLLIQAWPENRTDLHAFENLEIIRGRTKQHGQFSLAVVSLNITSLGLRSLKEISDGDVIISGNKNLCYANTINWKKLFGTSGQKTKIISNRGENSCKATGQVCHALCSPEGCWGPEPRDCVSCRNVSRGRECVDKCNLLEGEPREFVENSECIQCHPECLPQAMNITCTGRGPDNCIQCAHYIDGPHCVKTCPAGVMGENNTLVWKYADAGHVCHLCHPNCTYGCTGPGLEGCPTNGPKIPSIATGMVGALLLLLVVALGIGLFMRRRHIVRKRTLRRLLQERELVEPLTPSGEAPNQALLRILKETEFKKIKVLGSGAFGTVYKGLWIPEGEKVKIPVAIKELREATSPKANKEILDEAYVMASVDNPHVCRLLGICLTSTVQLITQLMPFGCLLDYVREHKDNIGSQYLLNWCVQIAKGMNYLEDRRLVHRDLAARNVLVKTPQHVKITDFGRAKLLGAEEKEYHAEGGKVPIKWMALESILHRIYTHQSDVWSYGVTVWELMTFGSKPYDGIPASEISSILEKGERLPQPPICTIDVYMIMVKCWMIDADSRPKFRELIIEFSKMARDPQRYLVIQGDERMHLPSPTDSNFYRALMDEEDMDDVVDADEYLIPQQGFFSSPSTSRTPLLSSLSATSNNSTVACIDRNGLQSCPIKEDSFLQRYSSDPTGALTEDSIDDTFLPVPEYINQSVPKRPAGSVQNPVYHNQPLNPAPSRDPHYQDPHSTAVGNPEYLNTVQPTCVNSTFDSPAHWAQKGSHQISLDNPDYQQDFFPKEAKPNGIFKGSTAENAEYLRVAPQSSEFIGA

[7] = target: EGFR (T790M) (Homo sapiens, UniProt P00533, T790M); assay: Kinase assays, selectivity panel (qPCR); settings: read-out: % Control @ 300 nM
Chain of EGFR (T790M) (P00533 25-1210 T790M): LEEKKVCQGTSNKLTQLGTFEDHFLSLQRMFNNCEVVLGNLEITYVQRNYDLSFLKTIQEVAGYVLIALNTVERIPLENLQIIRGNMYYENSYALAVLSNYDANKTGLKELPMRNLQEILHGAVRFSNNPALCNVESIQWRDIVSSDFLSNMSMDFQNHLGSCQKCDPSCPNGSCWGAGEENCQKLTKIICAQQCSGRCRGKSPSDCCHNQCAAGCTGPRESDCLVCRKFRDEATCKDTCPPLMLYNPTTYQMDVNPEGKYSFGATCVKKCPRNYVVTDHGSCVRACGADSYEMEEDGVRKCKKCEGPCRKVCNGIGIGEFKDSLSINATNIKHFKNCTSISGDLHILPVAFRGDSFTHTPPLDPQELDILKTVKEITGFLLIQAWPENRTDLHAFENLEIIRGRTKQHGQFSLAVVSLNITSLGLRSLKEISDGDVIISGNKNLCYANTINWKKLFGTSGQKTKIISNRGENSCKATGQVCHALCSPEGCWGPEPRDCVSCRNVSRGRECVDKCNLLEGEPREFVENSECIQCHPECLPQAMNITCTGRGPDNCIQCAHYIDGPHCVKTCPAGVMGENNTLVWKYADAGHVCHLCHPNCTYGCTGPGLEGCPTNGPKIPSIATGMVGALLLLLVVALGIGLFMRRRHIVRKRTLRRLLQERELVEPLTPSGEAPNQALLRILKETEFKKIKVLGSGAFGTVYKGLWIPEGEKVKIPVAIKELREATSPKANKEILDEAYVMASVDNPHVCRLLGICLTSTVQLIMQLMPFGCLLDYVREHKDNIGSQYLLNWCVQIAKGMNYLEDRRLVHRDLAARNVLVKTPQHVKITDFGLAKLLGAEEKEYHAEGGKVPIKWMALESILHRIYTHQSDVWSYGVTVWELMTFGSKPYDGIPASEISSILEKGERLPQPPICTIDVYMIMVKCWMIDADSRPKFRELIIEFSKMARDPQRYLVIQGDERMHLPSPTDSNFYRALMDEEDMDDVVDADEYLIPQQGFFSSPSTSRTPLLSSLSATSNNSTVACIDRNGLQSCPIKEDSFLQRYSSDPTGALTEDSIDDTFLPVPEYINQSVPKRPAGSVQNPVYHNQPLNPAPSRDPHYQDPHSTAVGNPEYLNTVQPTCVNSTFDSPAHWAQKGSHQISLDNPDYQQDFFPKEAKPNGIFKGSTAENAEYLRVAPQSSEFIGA

[8] = target: T1, EPHA6 (Homo sapiens, UniProt Q9UF33); assay: Kinase assays, selectivity panel (qPCR); settings: read-out: % Control @ 300 nM
T1 sequence (Q9UF33 23-1036): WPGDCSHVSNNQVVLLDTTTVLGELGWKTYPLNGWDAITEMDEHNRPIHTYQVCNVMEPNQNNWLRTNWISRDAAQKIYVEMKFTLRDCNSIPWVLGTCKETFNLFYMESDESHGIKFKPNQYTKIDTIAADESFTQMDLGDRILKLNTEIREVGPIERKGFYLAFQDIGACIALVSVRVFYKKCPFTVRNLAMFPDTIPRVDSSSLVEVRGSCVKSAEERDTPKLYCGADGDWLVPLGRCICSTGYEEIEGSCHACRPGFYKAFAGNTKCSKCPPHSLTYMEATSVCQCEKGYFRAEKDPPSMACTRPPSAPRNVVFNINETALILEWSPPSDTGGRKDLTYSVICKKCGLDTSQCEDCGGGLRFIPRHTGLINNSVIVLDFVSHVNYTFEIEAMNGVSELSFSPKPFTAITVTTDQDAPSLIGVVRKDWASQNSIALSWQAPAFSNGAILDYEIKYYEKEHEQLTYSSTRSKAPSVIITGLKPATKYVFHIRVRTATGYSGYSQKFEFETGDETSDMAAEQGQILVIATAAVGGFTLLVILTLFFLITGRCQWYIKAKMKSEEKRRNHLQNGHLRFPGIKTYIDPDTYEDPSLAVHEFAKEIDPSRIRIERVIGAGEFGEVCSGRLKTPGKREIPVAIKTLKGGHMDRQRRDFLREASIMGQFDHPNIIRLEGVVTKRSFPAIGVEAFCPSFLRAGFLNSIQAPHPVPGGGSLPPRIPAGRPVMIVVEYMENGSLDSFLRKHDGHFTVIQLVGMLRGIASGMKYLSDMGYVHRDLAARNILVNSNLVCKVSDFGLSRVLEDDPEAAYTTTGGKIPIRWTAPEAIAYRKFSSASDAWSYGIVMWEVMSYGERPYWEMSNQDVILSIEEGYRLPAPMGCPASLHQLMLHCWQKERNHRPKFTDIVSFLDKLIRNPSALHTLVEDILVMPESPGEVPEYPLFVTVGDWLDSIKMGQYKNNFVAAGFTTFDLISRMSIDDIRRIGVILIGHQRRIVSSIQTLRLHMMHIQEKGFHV

[9] = system: UO-31; assay: NCI screening panel (SRB); type: cell-based; settings: Homo sapiens, UO-31 (Renal), 48 h; for CC50: read-out: LC50 (the source's name)
[10] = target: EGFR (S752-I759del) (Homo sapiens, UniProt P00533, DEL752-759); assay: Kinase assays, selectivity panel (qPCR); settings: read-out: % Control @ 300 nM
Chain of EGFR (S752-I759del) (P00533 with tags, fused parts or gaps DEL752-759): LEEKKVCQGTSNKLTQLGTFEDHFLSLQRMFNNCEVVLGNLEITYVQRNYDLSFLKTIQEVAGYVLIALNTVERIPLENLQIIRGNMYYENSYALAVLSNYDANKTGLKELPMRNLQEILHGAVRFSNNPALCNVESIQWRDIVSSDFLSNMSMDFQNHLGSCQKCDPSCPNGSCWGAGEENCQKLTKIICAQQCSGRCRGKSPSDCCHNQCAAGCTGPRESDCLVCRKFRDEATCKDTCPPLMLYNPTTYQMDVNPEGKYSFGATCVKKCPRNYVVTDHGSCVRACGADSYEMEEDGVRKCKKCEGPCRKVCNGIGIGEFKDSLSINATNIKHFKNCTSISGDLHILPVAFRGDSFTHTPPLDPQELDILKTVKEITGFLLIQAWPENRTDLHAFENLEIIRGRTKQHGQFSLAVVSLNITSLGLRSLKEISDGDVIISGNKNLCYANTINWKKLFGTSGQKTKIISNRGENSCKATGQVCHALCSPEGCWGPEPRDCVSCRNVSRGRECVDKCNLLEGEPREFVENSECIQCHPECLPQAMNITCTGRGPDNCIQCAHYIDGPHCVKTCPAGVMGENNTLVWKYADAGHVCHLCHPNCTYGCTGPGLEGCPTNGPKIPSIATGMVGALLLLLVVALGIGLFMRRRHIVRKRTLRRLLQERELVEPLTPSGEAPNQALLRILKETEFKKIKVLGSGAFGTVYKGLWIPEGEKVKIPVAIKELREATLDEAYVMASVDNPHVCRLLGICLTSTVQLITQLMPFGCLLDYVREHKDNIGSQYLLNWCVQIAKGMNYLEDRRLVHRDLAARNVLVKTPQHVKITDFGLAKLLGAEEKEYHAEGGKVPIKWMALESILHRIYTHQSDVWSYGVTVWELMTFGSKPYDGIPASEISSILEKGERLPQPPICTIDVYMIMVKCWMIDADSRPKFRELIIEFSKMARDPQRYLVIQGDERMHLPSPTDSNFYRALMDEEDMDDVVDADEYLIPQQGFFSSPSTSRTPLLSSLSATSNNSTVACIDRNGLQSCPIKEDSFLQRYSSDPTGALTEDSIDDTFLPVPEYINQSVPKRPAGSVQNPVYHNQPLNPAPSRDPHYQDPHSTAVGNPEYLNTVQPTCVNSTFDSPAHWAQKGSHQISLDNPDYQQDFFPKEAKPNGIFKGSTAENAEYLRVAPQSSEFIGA

[11] = system: SK-OV-3; assay: NCI screening panel (SRB); type: cell-based; settings: Homo sapiens, SK-OV-3 (Ovarian), 48 h; for CC50: read-out: LC50 (the source's name)
[12] = system: HCT-15; assay: NCI screening panel (SRB); type: cell-based; settings: Homo sapiens, HCT-15 (Colon), 48 h; for CC50: read-out: LC50 (the source's name)

SMILES: CN(C)C/C=C/C(=O)Nc1cc2c(Nc3cccc(Cl)c3F)ncnc2cc1OCCOC(F)F.O=C(O)/C=C\C(=O)O [Example I-5-MA, (E)-N-[4-(3-chloro-2-fluoro-anilino)-7-[2-(difluoromethoxy)ethoxy]quinazolin-6-yl]-4-(dimethylamino)but-2-enamide dimaleic acid salt]
- Papp A→B at 120 min, 5 µM [1]: 135 nm/s
- Papp B→A at 120 min, 5 µM [1]: 65.2 nm/s

SMILES: CN(C)C/C=C/C(=O)Nc1cc2c(Nc3ccc(F)c(Cl)c3F)ncnc2cc1OCCOC(F)F.O=C(O)/C=C\C(=O)O.O=C(O)/C=C\C(=O)O [Example I-9-MA, (E)-N-[4-(3-chloro-2,4-difluoro-anilino)-7-[2-(difluoromethoxy)ethoxy]quinazolin-6-yl]-4-(dimethylamino)but-2-enamide di-maleic acid salt]
- GI50 [2]: 1.6 µM
- CC50 [2]: 36.6 µM
- GI50 [3]: 1.17 µM
- CC50 [3]: 27.2 µM
- AUC(0-inf) ([4]; iv, i.v. 1 mg/kg free base): 0.42 µg·h/mL
- Cmax ([4]; iv, i.v. 1 mg/kg free base): 0.171 µg/mL
- Tmax ([4]; iv, i.v. 1 mg/kg free base): 0.0833 h
- AUC(0-t) ([4]; iv, i.v. 1 mg/kg free base): 0.397 µg·h/mL
- half-life ([4]; iv, i.v. 1 mg/kg free base): 7.11 h
- MRT last ([4]; iv, i.v. 1 mg/kg free base): 6.6 h
- AUC(0-inf) ([4]; po, p.o. 25 mg/kg free base): 5.96 µg·h/mL
- Cmax ([4]; po, p.o. 25 mg/kg free base): 0.651 µg/mL
- Tmax ([4]; po, p.o. 25 mg/kg free base): 2 h
- AUC(0-t) ([4]; po, p.o. 25 mg/kg free base): 5.91 µg·h/mL
- half-life ([4]; po, p.o. 25 mg/kg free base): 3.44 h
- MRT last ([4]; po, p.o. 25 mg/kg free base): 6.78 h
- GI50 [5]: 0.14 µM
- CC50 [5]: 20.8 µM
- remaining activity at 0.3 µM [6]: 0%
- remaining activity at 0.3 µM [7]: 0.1%
- remaining activity at 0.3 µM [8]: 3.5%
- GI50 [9]: < 0.01 µM
- CC50 [9]: 14.6 µM
- remaining activity at 0.3 µM [10]: 0.5%
- GI50 [11]: < 0.01 µM
- CC50 [11]: 27.7 µM
- GI50 [12]: 0.675 µM
- CC50 [12]: 9.46 µM

SMILES: O=C(/C=C/CN1CCCCC1)Nc1cc2c(Nc3ccc(F)c(Cl)c3F)ncnc2cc1OCCOC(F)F.O=C(O)/C=C\C(=O)O.O=C(O)/C=C\C(=O)O [Example I-10-MA, (E)-N-[4-(3-chloro-2,4-difluoro-anilino)-7-[2-(difluoromethoxy)ethoxy]quinazolin-6-yl]-4-(1-piperidyl)but-2-enamide di-maleic acid salt]
- GI50 [2]: 2.16 µM
- CC50 [2]: 68.8 µM
- GI50 [3]: 1.8 µM
- CC50 [3]: 28.6 µM
- AUC(0-inf) ([4]; iv, i.v. 1 mg/kg free base): 1.73 µg·h/mL
- Cmax ([4]; iv, i.v. 1 mg/kg free base): 1.11 µg/mL
- Tmax ([4]; iv, i.v. 1 mg/kg free base): 0.25 h
- AUC(0-t) ([4]; iv, i.v. 1 mg/kg free base): 1.71 µg·h/mL
- half-life ([4]; iv, i.v. 1 mg/kg free base): 4.75 h
- MRT last ([4]; iv, i.v. 1 mg/kg free base): 2.99 h
- AUC(0-inf) ([4]; po, p.o. 25 mg/kg free base): 14 µg·h/mL
- Cmax ([4]; po, p.o. 25 mg/kg free base): 3.83 µg/mL
- Tmax ([4]; po, p.o. 25 mg/kg free base): 2 h
- AUC(0-t) ([4]; po, p.o. 25 mg/kg free base): 13.9 µg·h/mL
- half-life ([4]; po, p.o. 25 mg/kg free base): 3.25 h
- MRT last ([4]; po, p.o. 25 mg/kg free base): 3.68 h
- GI50 [5]: 0.266 µM
- CC50 [5]: 37.8 µM
- remaining activity at 0.3 µM [6]: 0.4%
- remaining activity at 0.3 µM [7]: 0.75%
- remaining activity at 0.3 µM [8]: 3.9%
- GI50 [9]: 0.0134 µM
- CC50 [9]: 39.1 µM
- remaining activity at 0.3 µM [10]: 0%
- GI50 [11]: 0.0405 µM
- CC50 [11]: 36 µM
- GI50 [12]: 1.34 µM
- CC50 [12]: 23 µM

- Papp A→B at 120 min, 5 µM [1]: 8.1 nm/s
- Papp B→A at 120 min, 5 µM [1]: 160 nm/s
- Cmax ([4]; iv, i.v. 1 mg/kg free base): 0.0127 µg/mL
- Tmax ([4]; iv, i.v. 1 mg/kg free base): 0.0833 h
- AUC(0-t) ([4]; iv, i.v. 1 mg/kg free base): 0.0445 µg·h/mL
- half-life ([4]; iv, i.v. 1 mg/kg free base): 4.97 h
- MRT last ([4]; iv, i.v. 1 mg/kg free base): 7.01 h
- AUC(0-inf) ([4]; po, p.o. 25 mg/kg free base): 0.704 µg·h/mL
- Cmax ([4]; po, p.o. 25 mg/kg free base): 0.0833 µg/mL
- Tmax ([4]; po, p.o. 25 mg/kg free base): 4 h
- AUC(0-t) ([4]; po, p.o. 25 mg/kg free base): 0.688 µg·h/mL
- half-life ([4]; po, p.o. 25 mg/kg free base): 3.69 h
- MRT last ([4]; po, p.o. 25 mg/kg free base): 8.64 h
SMILES: CN(C)C/C=C/C(=O)Nc1cc2c(Nc3ccc(F)c(Cl)c3)ncnc2cc1O[C@H]1CCOC1 [Afatinib, reference compound]
